In brackets after ≈: the same amount, converted by molar mass.
These molecules were tested on Staphylococcus aureus (assay: Antibacterial activity against Staphylococcus aureus assessed as inhibition of bacterial growth).
Assay type: functional

| SMILES | MIC [µg/mL] |
| --- | --- |
| Cc1cc(=O)oc2cc(/N=C3/S/C(=C\c4ccc([N+](=O)[O-])cc4)C(=O)N3CCO)ccc12 | 64 (≈ 142 µM) |
| Cc1cc(=O)oc2cc(/N=C3/S/C(=C\c4cccc(Cl)c4)C(=O)N3CCO)ccc12 | 32 (≈ 72.6 µM) |
| Cc1cc(=O)oc2cc(/N=C3/S/C(=C\c4ccco4)C(=O)N3CCO)ccc12 | 128 (≈ 323 µM) |
| C=CCn1cc(/C=C2\S/C(=N/c3ccc4c(C)cc(=O)oc4c3)N(CCO)C2=O)c2ccccc21 | 128 (≈ 264 µM) |
| Cc1cc(=O)oc2cc(/N=C3/S/C(=C\c4ccc(C(F)(F)F)cc4)C(=O)N3CCO)ccc12 | 128 (≈ 270 µM) |
| CCn1cc(C(=O)O)c(=O)c2cc(F)c(N3CCNCC3)cc21 [NORFLOXACIN] | 2 (≈ 6.26 µM) |
| Cc1cc(=O)oc2cc(/N=C3/S/C(=C\c4nccs4)C(=O)N3CCO)ccc12 | 16 (≈ 38.7 µM) |

Each molecule was assayed on Staphylococcus aureus (assay: Antibacterial activity against methicillin resistant Staphylococcus aureus N315 assessed as inhibition of bacterial growth).
Assay type: functional

| SMILES | MIC [µg/mL] |
| --- | --- |
| Cc1cc(=O)oc2cc(/N=C3/S/C(=C\c4ccc([N+](=O)[O-])cc4)C(=O)N3CCO)ccc12 | 32 (≈ 70.9 µM) |
| Cc1cc(=O)oc2cc(/N=C3/S/C(=C\c4cccc(Cl)c4)C(=O)N3CCO)ccc12 | 8 (≈ 18.1 µM) |
| Cc1cc(=O)oc2cc(/N=C3/S/C(=C\c4ccco4)C(=O)N3CCO)ccc12 | 8 (≈ 20.2 µM) |
| C=CCn1cc(/C=C2\S/C(=N/c3ccc4c(C)cc(=O)oc4c3)N(CCO)C2=O)c2ccccc21 | 128 (≈ 264 µM) |
| Cc1cc(=O)oc2cc(/N=C3/S/C(=C\c4ccc(C(F)(F)F)cc4)C(=O)N3CCO)ccc12 | 256 (≈ 540 µM) |
| CCn1cc(C(=O)O)c(=O)c2cc(F)c(N3CCNCC3)cc21 [NORFLOXACIN] | 4 (≈ 12.5 µM) |
| Cc1cc(=O)oc2cc(/N=C3/S/C(=C\c4nccs4)C(=O)N3CCO)ccc12 | 64 (≈ 155 µM) |

These molecules were tested on Enterococcus faecalis (assay: Antibacterial activity against Enterococcus faecalis assessed as inhibition of bacterial growth).
Assay type: functional

| SMILES | MIC [µg/mL] |
| --- | --- |
| Cc1cc(=O)oc2cc(/N=C3/S/C(=C\c4ccc([N+](=O)[O-])cc4)C(=O)N3CCO)ccc12 | 32 (≈ 70.9 µM) |
| Cc1cc(=O)oc2cc(/N=C3/S/C(=C\c4cccc(Cl)c4)C(=O)N3CCO)ccc12 | 32 (≈ 72.6 µM) |
| Cc1cc(=O)oc2cc(/N=C3/S/C(=C\c4ccco4)C(=O)N3CCO)ccc12 | 16 (≈ 40.4 µM) |
| C=CCn1cc(/C=C2\S/C(=N/c3ccc4c(C)cc(=O)oc4c3)N(CCO)C2=O)c2ccccc21 | 128 (≈ 264 µM) |
| Cc1cc(=O)oc2cc(/N=C3/S/C(=C\c4ccc(C(F)(F)F)cc4)C(=O)N3CCO)ccc12 | 256 (≈ 540 µM) |
| CCn1cc(C(=O)O)c(=O)c2cc(F)c(N3CCNCC3)cc21 [NORFLOXACIN] | 4 (≈ 12.5 µM) |
| Cc1cc(=O)oc2cc(/N=C3/S/C(=C\c4nccs4)C(=O)N3CCO)ccc12 | 4 (≈ 9.67 µM) |

These molecules were tested on Staphylococcus aureus (assay: Antibacterial activity against Staphylococcus aureus ATCC 25923 assessed as inhibition of bacterial growth).
Assay type: functional

| SMILES | MIC [µg/mL] |
| --- | --- |
| Cc1cc(=O)oc2cc(/N=C3/S/C(=C\c4ccc([N+](=O)[O-])cc4)C(=O)N3CCO)ccc12 | 128 (≈ 284 µM) |
| Cc1cc(=O)oc2cc(/N=C3/S/C(=C\c4cccc(Cl)c4)C(=O)N3CCO)ccc12 | 8 (≈ 18.1 µM) |
| Cc1cc(=O)oc2cc(/N=C3/S/C(=C\c4ccco4)C(=O)N3CCO)ccc12 | 256 (≈ 646 µM) |
| C=CCn1cc(/C=C2\S/C(=N/c3ccc4c(C)cc(=O)oc4c3)N(CCO)C2=O)c2ccccc21 | 32 (≈ 65.9 µM) |
| Cc1cc(=O)oc2cc(/N=C3/S/C(=C\c4ccc(C(F)(F)F)cc4)C(=O)N3CCO)ccc12 | 64 (≈ 135 µM) |
| CCn1cc(C(=O)O)c(=O)c2cc(F)c(N3CCNCC3)cc21 [NORFLOXACIN] | 4 (≈ 12.5 µM) |
| Cc1cc(=O)oc2cc(/N=C3/S/C(=C\c4nccs4)C(=O)N3CCO)ccc12 | 1 (≈ 2.42 µM) |

These molecules were tested on Staphylococcus aureus (assay: Antibacterial activity against Staphylococcus aureus ATCC 29213 assessed as inhibition of bacterial growth).
Assay type: functional

| SMILES | MIC [µg/mL] |
| --- | --- |
| Cc1cc(=O)oc2cc(/N=C3/S/C(=C\c4ccc([N+](=O)[O-])cc4)C(=O)N3CCO)ccc12 | 64 (≈ 142 µM) |
| Cc1cc(=O)oc2cc(/N=C3/S/C(=C\c4cccc(Cl)c4)C(=O)N3CCO)ccc12 | 32 (≈ 72.6 µM) |
| Cc1cc(=O)oc2cc(/N=C3/S/C(=C\c4ccco4)C(=O)N3CCO)ccc12 | 32 (≈ 80.7 µM) |
| C=CCn1cc(/C=C2\S/C(=N/c3ccc4c(C)cc(=O)oc4c3)N(CCO)C2=O)c2ccccc21 | 64 (≈ 132 µM) |
| Cc1cc(=O)oc2cc(/N=C3/S/C(=C\c4ccc(C(F)(F)F)cc4)C(=O)N3CCO)ccc12 | 256 (≈ 540 µM) |
| CCn1cc(C(=O)O)c(=O)c2cc(F)c(N3CCNCC3)cc21 [NORFLOXACIN] | 2 (≈ 6.26 µM) |
| Cc1cc(=O)oc2cc(/N=C3/S/C(=C\c4nccs4)C(=O)N3CCO)ccc12 | 64 (≈ 155 µM) |

What follows are molecules tested on Klebsiella pneumoniae (assay: Antibacterial activity against Klebsiella pneumoniae assessed as inhibition of bacterial growth).
Assay type: functional

| SMILES | MIC [µg/mL] |
| --- | --- |
| Cc1cc(=O)oc2cc(/N=C3/S/C(=C\c4ccc([N+](=O)[O-])cc4)C(=O)N3CCO)ccc12 | 64 (≈ 142 µM) |
| Cc1cc(=O)oc2cc(/N=C3/S/C(=C\c4cccc(Cl)c4)C(=O)N3CCO)ccc12 | 32 (≈ 72.6 µM) |
| Cc1cc(=O)oc2cc(/N=C3/S/C(=C\c4ccco4)C(=O)N3CCO)ccc12 | 128 (≈ 323 µM) |
| C=CCn1cc(/C=C2\S/C(=N/c3ccc4c(C)cc(=O)oc4c3)N(CCO)C2=O)c2ccccc21 | 8 (≈ 16.5 µM) |
| Cc1cc(=O)oc2cc(/N=C3/S/C(=C\c4ccc(C(F)(F)F)cc4)C(=O)N3CCO)ccc12 | 128 (≈ 270 µM) |
| CCn1cc(C(=O)O)c(=O)c2cc(F)c(N3CCNCC3)cc21 [NORFLOXACIN] | 4 (≈ 12.5 µM) |
| Cc1cc(=O)oc2cc(/N=C3/S/C(=C\c4nccs4)C(=O)N3CCO)ccc12 | 2 (≈ 4.84 µM) |

What follows are molecules tested on Escherichia coli (assay: Antibacterial activity against Escherichia coli assessed as inhibition of bacterial growth).
Assay type: functional

| SMILES | MIC [µg/mL] |
| --- | --- |
| Cc1cc(=O)oc2cc(/N=C3/S/C(=C\c4ccc([N+](=O)[O-])cc4)C(=O)N3CCO)ccc12 | 128 (≈ 284 µM) |
| Cc1cc(=O)oc2cc(/N=C3/S/C(=C\c4cccc(Cl)c4)C(=O)N3CCO)ccc12 | 32 (≈ 72.6 µM) |
| Cc1cc(=O)oc2cc(/N=C3/S/C(=C\c4ccco4)C(=O)N3CCO)ccc12 | 128 (≈ 323 µM) |
| C=CCn1cc(/C=C2\S/C(=N/c3ccc4c(C)cc(=O)oc4c3)N(CCO)C2=O)c2ccccc21 | 128 (≈ 264 µM) |
| Cc1cc(=O)oc2cc(/N=C3/S/C(=C\c4ccc(C(F)(F)F)cc4)C(=O)N3CCO)ccc12 | 128 (≈ 270 µM) |
| CCn1cc(C(=O)O)c(=O)c2cc(F)c(N3CCNCC3)cc21 [NORFLOXACIN] | 2 (≈ 6.26 µM) |
| Cc1cc(=O)oc2cc(/N=C3/S/C(=C\c4nccs4)C(=O)N3CCO)ccc12 | 128 (≈ 310 µM) |

These molecules were tested on Escherichia coli (assay: Antibacterial activity against Escherichia coli ATCC 25922 assessed as inhibition of bacterial growth).
Assay type: functional

| SMILES | MIC [µg/mL] |
| --- | --- |
| Cc1cc(=O)oc2cc(/N=C3/S/C(=C\c4ccc([N+](=O)[O-])cc4)C(=O)N3CCO)ccc12 | 64 (≈ 142 µM) |
| Cc1cc(=O)oc2cc(/N=C3/S/C(=C\c4cccc(Cl)c4)C(=O)N3CCO)ccc12 | 64 (≈ 145 µM) |
| Cc1cc(=O)oc2cc(/N=C3/S/C(=C\c4ccco4)C(=O)N3CCO)ccc12 | 4 (≈ 10.1 µM) |
| C=CCn1cc(/C=C2\S/C(=N/c3ccc4c(C)cc(=O)oc4c3)N(CCO)C2=O)c2ccccc21 | 128 (≈ 264 µM) |
| Cc1cc(=O)oc2cc(/N=C3/S/C(=C\c4ccc(C(F)(F)F)cc4)C(=O)N3CCO)ccc12 | 256 (≈ 540 µM) |
| CCn1cc(C(=O)O)c(=O)c2cc(F)c(N3CCNCC3)cc21 [NORFLOXACIN] | 4 (≈ 12.5 µM) |
| Cc1cc(=O)oc2cc(/N=C3/S/C(=C\c4nccs4)C(=O)N3CCO)ccc12 | 256 (≈ 619 µM) |

What follows are molecules tested on Pseudomonas aeruginosa (assay: Antibacterial activity against Pseudomonas aeruginosa assessed as inhibition of bacterial growth).
Assay type: functional

| SMILES | MIC [µg/mL] |
| --- | --- |
| Cc1cc(=O)oc2cc(/N=C3/S/C(=C\c4ccc([N+](=O)[O-])cc4)C(=O)N3CCO)ccc12 | 64 (≈ 142 µM) |
| Cc1cc(=O)oc2cc(/N=C3/S/C(=C\c4cccc(Cl)c4)C(=O)N3CCO)ccc12 | 2 (≈ 4.54 µM) |
| Cc1cc(=O)oc2cc(/N=C3/S/C(=C\c4ccco4)C(=O)N3CCO)ccc12 | 64 (≈ 161 µM) |
| C=CCn1cc(/C=C2\S/C(=N/c3ccc4c(C)cc(=O)oc4c3)N(CCO)C2=O)c2ccccc21 | 64 (≈ 132 µM) |
| Cc1cc(=O)oc2cc(/N=C3/S/C(=C\c4ccc(C(F)(F)F)cc4)C(=O)N3CCO)ccc12 | 32 (≈ 67.4 µM) |
| CCn1cc(C(=O)O)c(=O)c2cc(F)c(N3CCNCC3)cc21 [NORFLOXACIN] | 1 (≈ 3.13 µM) |
| Cc1cc(=O)oc2cc(/N=C3/S/C(=C\c4nccs4)C(=O)N3CCO)ccc12 | 128 (≈ 310 µM) |

Each molecule was assayed on Pseudomonas aeruginosa (assay: Antibacterial activity against Pseudomonas aeruginosa ATCC 27853 assessed as inhibition of bacterial growth).
Assay type: functional

| SMILES | MIC [µg/mL] |
| --- | --- |
| Cc1cc(=O)oc2cc(/N=C3/S/C(=C\c4ccc([N+](=O)[O-])cc4)C(=O)N3CCO)ccc12 | 128 (≈ 284 µM) |
| Cc1cc(=O)oc2cc(/N=C3/S/C(=C\c4cccc(Cl)c4)C(=O)N3CCO)ccc12 | 1 (≈ 2.27 µM) |
| Cc1cc(=O)oc2cc(/N=C3/S/C(=C\c4ccco4)C(=O)N3CCO)ccc12 | 32 (≈ 80.7 µM) |
| C=CCn1cc(/C=C2\S/C(=N/c3ccc4c(C)cc(=O)oc4c3)N(CCO)C2=O)c2ccccc21 | 32 (≈ 65.9 µM) |
| Cc1cc(=O)oc2cc(/N=C3/S/C(=C\c4ccc(C(F)(F)F)cc4)C(=O)N3CCO)ccc12 | 256 (≈ 540 µM) |
| CCn1cc(C(=O)O)c(=O)c2cc(F)c(N3CCNCC3)cc21 [NORFLOXACIN] | 4 (≈ 12.5 µM) |
| Cc1cc(=O)oc2cc(/N=C3/S/C(=C\c4nccs4)C(=O)N3CCO)ccc12 | 128 (≈ 310 µM) |

What follows are molecules tested on Acinetobacter baumannii (assay: Antibacterial activity against Acinetobacter baumannii assessed as inhibition of bacterial growth).
Assay type: functional

| SMILES | MIC [µg/mL] |
| --- | --- |
| Cc1cc(=O)oc2cc(/N=C3/S/C(=C\c4ccc([N+](=O)[O-])cc4)C(=O)N3CCO)ccc12 | 32 (≈ 70.9 µM) |
| Cc1cc(=O)oc2cc(/N=C3/S/C(=C\c4cccc(Cl)c4)C(=O)N3CCO)ccc12 | 4 (≈ 9.07 µM) |
| Cc1cc(=O)oc2cc(/N=C3/S/C(=C\c4ccco4)C(=O)N3CCO)ccc12 | 1 (≈ 2.52 µM) |
| C=CCn1cc(/C=C2\S/C(=N/c3ccc4c(C)cc(=O)oc4c3)N(CCO)C2=O)c2ccccc21 | 64 (≈ 132 µM) |
| Cc1cc(=O)oc2cc(/N=C3/S/C(=C\c4ccc(C(F)(F)F)cc4)C(=O)N3CCO)ccc12 | 32 (≈ 67.4 µM) |
| CCn1cc(C(=O)O)c(=O)c2cc(F)c(N3CCNCC3)cc21 [NORFLOXACIN] | 4 (≈ 12.5 µM) |
| Cc1cc(=O)oc2cc(/N=C3/S/C(=C\c4nccs4)C(=O)N3CCO)ccc12 | 1 (≈ 2.42 µM) |

Source: ChEMBL document CHEMBL5131495, “Discovery of unique thiazolidinone-conjugated coumarins as novel broad spectrum antibacterial agents” (Eur J Med Chem, 2022)
